Where a name gives a salt, the structure may show the parent alone. Read-outs that look alike come from different tables or passages of the source.
Assays:
[1] = test system: Doxorubicin resistant SaOS2 cells; experiment: Cancer cell viability (MTT) in the presence or absence of doxorubicin; assay type: cell-based, human; conditions: compound 50 ug/mL, 3 days
TNFα = experiment: Measurement of LPS Induced-TNFα in THP-1 Cells; assay type: cell-based, human; conditions: Homo sapiens
Protocol: The lipid peroxidation assay method of Ohkawa, H.; Ohishi, N.; Yaki, K. Anal. Biochem. 1979, 95, 351 was used to evaluate […]. […] […] Cells were collected and spun at 1500 g for 10 minutes. Supernatant was collected and analyzed for TNFα.
Mean Percent Inhibition of TNF-alpha by compounds of the present invention is set forth in Table B. TNF-alpha inhibition data is set forth in Table B-1. OT-551 was used in both native form and in the form of nanoparticles. […] Other nitrogenous heterocyclic species of the invention are expected to show similar improvement in efficacy when disposed in nanoparticulate form.

Lipid peroxidation = Lipid peroxidation inhibition (method of Ohkawa); assay type: biochemical
[2] = test system: bFGF-induced angiogenesis in the CAM model; experiment: bFGF (FGF2)-stimulated CAM model; assay type: in vivo, chicken; conditions: bFGF/FGF2 1 ug, 30 ug injected; for inhibition in vivo at 0.03 mg: Gallus gallus, read-out: % Inhibition ± SEM
Protocol: In vivo neovascularization was examined by the method previously described by Auerbach et al. (J. Dev. Biol. 41:391-394 (1974)). Ten-day old chicken embryos were purchased from Spafas, Inc. (Preston, Conn.) and were incubated at 37° C. with 55% relative humidity. In the dark, with the aid of a candling lamp, a small hole was punctured in the shell concealing the air sac with a hypodermic needle. A second hole was punctured in the shell on the broadside of the egg directly over an […] portion of the embryonic membrane, as observed during candling. An artificial air sac was created beneath the second hole by applying gentle vacuum to the first hole using a small rubber squeeze bulb. The vacuum caused the chorioallantoic membrane (CAM) to separate from the shell.
For inducing angiogenesis, sterile filter disks were saturated with bFGF (1 μg/ml) (Life Technologies, Gaithersburg, Md.) or other pro-angiogenesis factors and control disks were saturated with PBS without Calcium and Magnesium. Control disks were saturated with PBS without Calcium and Magnesium.
After 24-48 hr, 10-25 ul of test agent was injected intravenously or added topically into the CAM membrane. Eight-Ten eggs/treatment group were used.
The number of vessel branch points contained in a circular region equal to the area of a filter disk was counted for each section. Percent inhibition data are expressed as the quotient of the experimental value minus the negative control value divided by the difference between the positive control value and the negative control value. One image was counted in each CAM preparation, and findings from eight CAM preparations were analyzed for each treatment condition. In addition, each experiment was performed three times. The resulting angiogenesis index is the mean ±SEM (Standard Error of Measurement) of new branch points in each set of treatment. Statistical analysis of blood vessel branching patterns are performed by 1-way analysis of variance (ANOVA) comparing experimental with corresponding control groups. Statistical significance differences are assessed at P value of <0.05.
The CAM model protocol was modified to include stimulus with bFGF. The effect of injected OT 551 was assayed.
TP-H was applied to the CAM model study to determine its respective anti-angiogenesis effects according to the materials and methods provided in Example 1. Basic Fibroblast Growth Factor (bFGF) was used to induce angiogenesis in the CAM model.
Compounds were introduced via injection to the CAM model study to determine its respective anti-angiogenesis effects according to the materials and methods provided in Example 1. bFGF was used to induce angiogenesis in the CAM model.

[3] = THP-1, compound 10 uM, 5 ng/mL LPS, read-out: Mean Percent Inhibition of TNF-alpha using 5 ng/mL LPS

Compound	IC50 (TNFα; THP-1, read-out: TNFalpha IC50) [µM]	melting point	Mean OD (×10^−3), MTT viability ([1]; Dox. 10^−6 M (+))	Mean OD (×10^−3), MTT viability ([1]; absence of Dox. (−))	% Lipid Peroxidation inhibition (at 1 uM) (Lipid peroxidation) [%]	inhibition in vivo at 0.03 mg [2] [%]	Branch pts ± SEM [2]	inhibition at 10 µM (TNFα; [3]) [%]	Lipid Peroxidation Inhibition, % Inhibition (Lipid peroxidation; 10 uM) [%]	inhibition at 10 µM (TNFα; THP-1, read-out: Mean Percent Inhibition of TNF-alpha using 5 ng/mL LPS) [%]	IC50 (TNFα; THP-1, read-out: TNFalpha IC50 (uM)) [µM]	Lipid Peroxidation Inhibition, % Inhibition (Lipid peroxidation; 100 uM) [%]
COC1CC(C)(C)N(O)C(C)(C)C1.Cl [Compound 1, 1-hydroxy-4-methoxy-2,2,6,6-tetramethylpiperidine hydrogen chloride]	16.8	–	246.50 ×10^−3	524.75 ×10^−3	74.1	89.9 ± 18	74 ± 8.6	50 ± 9	90.8	–	–	–
CC1(C)CC(=O)CC(C)(C)N1O [Compound 5, 1-Hydroxy-2,2,6,6-tetramethyl-piperidin-4-one]	–	–	245.50 ×10^−3	556.50 ×10^−3	71.0	26.5 ± 7.9	86.1 ± 9.8	–	86.3	66 ± 7	22.2	–
CC(C)(C)/[N+]([O-])=C/c1ccccc1 [Compound 17, α-phenyl-t-butyl nitrone, reference compound]	–	–	–	–	–	–	–	–	0.4	–	–	–
CC1(C)CC(O)C(C)(C)N1O (stereo not drawn) [Compound 7, 2,2,5,5-Tetramethyl-pyrrolidine-1,3-diol]	44.9	–	241.25 ×10^−3	540.25 ×10^−3	–	124 ± 8.4	40.8 ± 9.7	69 ± 2	82.9	–	–	–
CC1(C)C=C(CO)CC(C)(C)N1O.Cl [Compound 25]	–	–	325.00 ×10^−3	1137.50 ×10^−3	42.0	–	–	–	–	–	–	–
O=C(O)c1cc(C(=O)O)c2c(n1)C(=O)C(=O)c1cc(C(=O)O)[nH]c1-2 [PQQ, pyrroloquinoline quinone, reference compound]	–	–	–	–	–	–	–	–	–	–	–	93.7
CC1(C)CC(N2CCOCC2)CC(C)(C)N1O.Cl [Compound 3, 4-(2,2,6,6-tetramethylpiperidin-1-hydroxy-4-yl)morpholine hydrogen chloride]	11.6	–	289.50 ×10^−3	640.25 ×10^−3	–	54.7 ± 7.9	95.1 ± 5.6	60 ± 2	77.8	–	–	–
CC1(C)C=C(CO)C(C)(C)N1O [Compound 8, 2,5-dihydro-2,2,5,5-tetramethyl-1-hydroxyl-1H-pyrrol-3-yl)methanol hydrogen chloride]	20.3	–	197.25 ×10^−3	392.50 ×10^−3	–	88.1 ± 7.6	57.8 ± 8.02	55 ± 6	–	–	–	–
CC1(C)CC(CO)C(C)(C)N1O.Cl (stereo not drawn) [Compound 33]	–	–	300.00 ×10^−3	1237.50 ×10^−3	54.9	–	–	–	–	–	–	–

Now from value to compound, other results behind:

IC50 (TNFα; THP-1, read-out: TNFalpha IC50) [µM]	melting point	Compound	Mean OD (×10^−3), MTT viability ([1]; Dox. 10^−6 M (+))	Mean OD (×10^−3), MTT viability ([1]; absence of Dox. (−))	% Lipid Peroxidation inhibition (at 1 uM) (Lipid peroxidation) [%]	inhibition in vivo at 0.03 mg [2] [%]	Branch pts ± SEM [2]	inhibition at 10 µM (TNFα; [3]) [%]	Lipid Peroxidation Inhibition, % Inhibition (Lipid peroxidation; 10 uM) [%]	inhibition at 10 µM (TNFα; THP-1, read-out: Mean Percent Inhibition of TNF-alpha using 5 ng/mL LPS) [%]	IC50 (TNFα; THP-1, read-out: TNFalpha IC50 (uM)) [µM]	Lipid Peroxidation Inhibition, % Inhibition (Lipid peroxidation; 100 uM) [%]
3.8	–	CC1(C)C=CCC(C)(C)N1O.Cl [Compound 35, 1-hydroxy-1,2,3,6-tetrahydro-2,2,6,6-tetramethylpyridine hydrogen chloride]	352.75 ×10^−3	1128.00 ×10^−3	64.4	–	–	–	–	–	–	–
1	201.7 °C (dec.)	CC1(C)CC(O)(c2ccccc2)CC(C)(C)N1O.Cl [Compound 42, 1,4-Dihydroxy-4-phenyl-2,2,6,6-tetramethylpiperidine hydrochloride]	311.00 ×10^−3	1068.67 ×10^−3	83.8	–	–	–	–	–	–	–
≥ 100	–	CC1(C)CC(NS(C)(=O)=O)CC(C)(C)N1O [Compound 10, 1-hydroxy-4-methanesulfonamido-2,2,6,6-tetramethylpiperidine]	250.00 ×10^−3	456.00 ×10^−3	–	78.2 ± 9.9	60.4 ± 5.0	–	85.8	–	–	–
≥ 100	–	CCOCC(C)(C)N(O)C(C)(C)COCC [Compound 40, N-Hydroxyl-N,N-bis(1-ethoxy-2-methylpropan-2-yl)amine hydrochloride]	338.75 ×10^−3	1177.25 ×10^−3	46.8	–	–	–	–	–	–	–
45.5	–	CC(C)(C)c1cc(NC(=O)C2CC(C)(C)N(O)C(C)(C)C2)cc(C(C)(C)C)c1O.Cl [Compound 29, N-(3,5-di-tert-butyl-4-hydroxyphenyl)-1-hydroxy-2,2,6,6-tetramethylpiperidine-4-carboxamide hydrogen chloride]	105.75 ×10^−3	1328.00 ×10^−3	92.3	–	–	–	–	–	–	–
1	–	COc1ccc(C2=C(c3cc(OC)c(OC)c(OC)c3)C(C)(C)N(O)C2(C)C)cc1C=O.Cl [Compound 46, 5-(2,5,-dihydro-4-(3,4,5-trimethoxyphenyl)-1-hydroxy-2,2,5,5-tetramethyl-1H-pyrrol-3-yl)-2-methoxybenzaldehyde hydrochloride]	32.75 ×10^−3	79.00 ×10^−3	80.1	–	–	–	–	–	–	–
18.9	138.5 °C (dec.)	CC1(C)CC(O)C(Br)C(C)(C)N1O (stereo not drawn) [Compound 9, 3-Bromo-2,2,6,6-tetramethyl-piperidine-1,4-diol]	234.75 ×10^−3	509.00 ×10^−3	–	82.2 ± 6.7	58.4 ± 6.52	48 ± 14	–	–	–	–
≥ 100	145 °C (dec.)	CC1(C)COC(=O)C(C)(C)N1O.Cl [Compound 39, N-Hydroxyl-3,3,5,5-tetramethylmorpholin-2-one hydrochloride]	311.00 ×10^−3	1201.00 ×10^−3	–	–	–	–	–	–	–	–
30	–	CC1(C)CC(Oc2nsnc2C#N)CC(C)(C)N1O [Compound 45, hydrochloride]	276.50 ×10^−3	1063.33 ×10^−3	91.5	–	–	–	–	–	–	–
≥ 100	–	CC1(C)CC(C(N)=O)C(C)(C)N1O (stereo not drawn) [Compound 24, 1-hydroxy-2,2,5,5-tetramethylpyrrolidine-3-carboxamide]	362.00 ×10^−3	1166.50 ×10^−3	37.0	–	–	–	–	–	–	–
≥ 100	–	Cc1cc(O)c(O)cc1C(=O)NC1CC(C)(C)N(O)C(C)(C)C1.Cl [Compound 27, 4,5-dihydroxy-2-methyl-N-(1-hydroxy-2,2,6,6-tetramethylpiperidin-4-yl)benzamide hydrogen chloride]	403.75 ×10^−3	1038.33 ×10^−3	53.4	–	–	–	–	–	–	–
≥ 100	181.5 °C (dec.)	CC1(C)CC(OCc2ccccc2)CC(C)(C)N1O.Cl [Compound 43, 4-Benzyloxy-1-hydroxy-2,2,6,6-tetramethylpiperidine hydrochloride]	324.67 ×10^−3	1159.00 ×10^−3	88.5	–	–	–	–	–	–	–
